Values of other authors, collected in patent publication US6440956B1, “Bicyclic polyaminoacid metal complexes, their process of preparation and their application in medical imaging” (Guerbet, priority 1999, dated 2002).

Details: ratio to commercial gadolinium chelates; from Inorganic Chemistry 36(14) 2992-3000 (1997) and Magn. Reson. Chem. 36, S200-208 (1998)

SMILES: O=C([O-])CN1CCN(CC(=O)[O-])Cc2cccc(n2)CN(CC(=O)[O-])CC1.[Gd+3] [PCTA]
- longitudinal relaxation r1 relative to that of the gadolinium chelates used as contrast agents in magnetic resonance imaging in man: ~2 times
